Several values for one entry are separate records, joined by “and”; a condition that tells them apart may be missing. Identical values can stand only once.
Experiments:
Format in all cases: cell-based, human
[1] = test system: MDA-MB-231 cells; test: Hoechst 33342 staining for apoptosis; conditions: OHR-1 15 μM, OHR-2 5 μM, OHR-3 10 μM, OHR-5 15 μM; 12 h
Protocol: MDA-MB-231 cells were seeded in the flat-bottomed 6-well plates and treated with OHR-1, -2, -3 and -5. Cells treated with solvent vehicle served as controls. In 12 h after treatment, cells were fixed in 4% polyoxymethylene solution for 30 min and then washed with PBS. The fixed cells were incubated with Hoechst 33342 for 15 min at room temperature in the dark and then washed with PBS twice, which were finally observed under a fluorescence microscope (Convert Fluorescence Microsope Axiovert 200, HAL 100, HBO 100, Carl Zeiss MicroImaging Co., Ltd., Oberkochen, Germany) at a magnification of ×400.

[2] = test system: MCF-7 cells; test: MTT cell viability assay, MCF-7 cells; conditions: MTT, 24 h incubation; read-out: IC50 MCF-7
Protocol: (§1) The human breast cancer cell lines MCF-7, MDA-MB-231, human hepatocellular liver cell line HepG2 and human lung carcinoma epithelial cells A549 were purchased from American Type Culture Collection (ATCC, Manassas, VA, USA). Normal human hepatic LO2 cells were obtained from the Institute of Cell Biology, Academic Sinica (Shanghai, China). The cells were grown in an atmosphere of 5% CO2 at 37 °C in RPMI 1640 medium supplemented with 10% fetal bovine serum, 100 U/mL penicillin and […] streptomycin.
(§2) The viability of cells was measured by a colorimetric MTT assay. Briefly, 1 × 10^4 cells/well in 96-well microplates were exposed to different concentration of polyynes and their acetylated derivatives respectively for 24 h incubation, following addition of 20 μL MTT solution (4 mg/mL) to each well for another 4 h incubation at 37 °C. Finally, the medium was removed and replaced with 100 μL dimethyl sulfoxide which was added to dissolve the dye crystal presented in cells. The absorbance was recorded at 570 nm using a microplate reader (1420 Multilabel counter victor^3, Perkin-Elmer, Waltham, MA, USA). The results were expressed as ratio of absorbance between treatments and control cells (solvent vehicle set at 100%). Four replicate wells were tested per assay which was repeated three times.

[3] = test system: MDA-MB-231 cells; test: MTT cell viability assay, MDA-MB-231 cells; conditions: MTT, 24 h incubation; read-out: IC50 MDA-MB-231
Protocol: as §1, §2

[4] = test system: LO2 cells; test: MTT cell viability assay, normal hepatic LO2 cells; conditions: normal human hepatic cells, MTT, 24 h incubation; read-out: IC50 LO2
Protocol: as §1, §2

[5] = test system: MDA-MB-231 cells; test: Cell cycle analysis by PI staining and flow cytometry; conditions: 24 h
Protocol: Cells were seeded in 6-well tissue culture plates and treated with DMSO control or different concentration of OHR-1, -2, -3 and -5 for 24 h. Then, the cells were harvested and fixed gently with cold 70% ethanol at −20 °C overnight. Finally, the cells were washed with PBS and re-suspended in 300 μL of propidium iodide (PI) stain solution (20 μg/mL PI and 8 μg/mL DNase-free RNase) for 20 min at room temperature in the dark. The cells were analyzed with a flow cytometry and Mod Fit LT 3.0 software (Variety Software House, Topsham, ME, USA). For each measurement, at least 20,000 cells were counted.

[6] = test system: A549 cells; test: MTT cell viability assay, A549 cells
Protocol: as §1, §2

[7] = test system: HepG2 cells; test: MTT cell viability assay, HepG2 cells; conditions: MTT, 24 h incubation; read-out: IC50 HepG2
Protocol: as §1, §2

[8] = test system: MDA-MB-231 cells; test: JC-1 mitochondrial membrane potential; conditions: high concentration (OHR-1 15 μM, OHR-2 5 μM, OHR-3 10 μM, OHR-5 15 μM), 24 h
Protocol: The MDA-MB-231 cells were treated with OHR-1, -2, -3 and -5 for 24 h in a humidified atmosphere (37 °C with 5% CO2). The cells were collected and responded in 0.5 mL culture medium with JC-1 dye (1 μg/mL) for 20 min at 37 °C in dark. Fluorescence was monitored by both flow cytometry (BD Biosciences, San Jose, CA, USA) and fluorescence microscope. The Δψm were indicated by the rato of […] fluorescence intensity. The data were expressed as ratio of Δψm between treatments and control cells (solvent vehicle set at 100%).

Substance: (3S,8S,Z)-3-Hydroxyheptadeca-9-en-4,6-diyn-8-yl acetate [OHR-3]
- induction of apoptosis (Hoechst staining) [1]: induce obvious apoptosis
- IC50 [2]: 25.8 ± 5.8 µM
- IC50 [3]: 6.6 ± 0.8 µM
- IC50 [4]: 31.5 ± 4 µM
- G2/M arrest rate at low concentration ([5]; OHR-1 7.5 μM, OHR-2 2.5 μM, OHR-3 5 μM, OHR-5 7.5 μM): 24.2% ± 2.9%
- G2/M arrest rate at high concentration ([5]; OHR-1 15 μM, OHR-2 5 μM, OHR-3 10 μM, OHR-5 15 μM): 25.6% ± 7.5%
- IC50 ([6]; MTT, 24 h incubation, read-out: IC50 A549): 30.1 µM and 31.4 µM
- A549 cell growth inhibited ([6]; at 60 µM, p < 0.01): 90.8%
- IC50 [7]: 31.5 ± 2.1 µM
- effect on mitochondrial membrane potential Δψm (JC-1) [8]: decreasing the Δψm
